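Tested at 5 concentrations; 48 h exposure; 96-well plates; endpoints linearly interpolated, else capped at highest concentration. The concentration for full growth arrest is given as TGI.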
Legend:
Assay in all cases: NCI anticancer screen, dose series, 48 h
[1] = system: NCI-H522 lung
[2] = system: KM12 colon
[3] = system: SN12C renal
[4] = system: IGROV1 ovarian
[5] = system: UO-31 renal
[6] = system: A549 NSCLC
[7] = system: BT-549 breast
[8] = system: MALME-3M melanoma
[9] = system: HCT-116 colon
[10] = system: TK-10 renal
[11] = system: K-562 leukemia
[12] = system: SW-620 colon
[13] = system: SK-MEL-2 melanoma
[14] = system: OVCAR-8 ovarian
[15] = system: EKVX NSCLC
[16] = system: NCI/ADR-RES ovarian
[17] = system: DU-145 prostate
[18] = system: OVCAR-4 ovarian
[19] = system: HL-60(TB) leukemia
[20] = system: CCRF-CEM leukemia

| SMILES | TGI [1] | TGI [2] | TGI [3] | TGI [4] | TGI [5] | TGI [6] | TGI [7] | TGI [8] | TGI [9] | TGI [10] | TGI [11] | TGI [12] | TGI [13] | TGI [14] | TGI [15] | TGI [16] | TGI [17] | TGI [18] | TGI [19] | TGI [20] |
| --- | --- | --- | --- | --- | --- | --- | --- | --- | --- | --- | --- | --- | --- | --- | --- | --- | --- | --- | --- | --- |
| COc1ccc(N=C2SC(=N/N=c3\sc4ccccc4n3C)SC2=Nc2ccc(OC)cc2)cc1 | > 100 µM | > 100 µM | > 100 µM | > 100 µM | > 100 µM | > 100 µM | > 100 µM | > 100 µM | > 100 µM | > 100 µM | > 100 µM | > 100 µM | > 100 µM | > 100 µM | > 100 µM | > 100 µM | > 100 µM | – | – | – |
| CC(=O)OCCn1cnc2nc(Nc3ccccc3)nc(Cl)c21 | > 100 µM | > 100 µM | > 100 µM | > 100 µM | – | > 100 µM | – | > 100 µM | > 100 µM | > 100 µM | > 100 µM | > 100 µM | – | > 100 µM | > 100 µM | > 100 µM | > 100 µM | > 100 µM | > 100 µM | > 100 µM |
| CSc1nc2c(nc(C)c(=O)n2C2OCC(OC(C)=O)C(OC(C)=O)C2OC(C)=O)c(=O)[nH]1 (stereo not given) | > 100 µM | > 100 µM | > 100 µM | > 100 µM | > 100 µM | > 100 µM | – | > 100 µM | > 100 µM | > 100 µM | > 100 µM | > 100 µM | > 100 µM | > 100 µM | > 100 µM | – | – | > 100 µM | > 100 µM | > 100 µM |
| COc1ccc(C2S/C(=C\c3ccccc3O)C(=O)N2NC(=O)Cc2ccccc2)cc1 (stereo not given) | > 100 µM | > 100 µM | > 100 µM | > 100 µM | > 100 µM | > 100 µM | – | > 100 µM | > 100 µM | > 100 µM | > 100 µM | > 100 µM | > 100 µM | > 100 µM | – | – | – | > 100 µM | > 100 µM | > 100 µM |
| COC(C)(C)C1=CCC(C)CC1 (stereo not given) | > 100 µM | > 100 µM | > 100 µM | > 100 µM | > 100 µM | > 100 µM | > 100 µM | > 100 µM | > 100 µM | > 100 µM | – | > 100 µM | – | > 100 µM | > 100 µM | – | > 100 µM | > 100 µM | – | – |
| C=C(C=O)[C@@H]1C2OC(=O)C(=C)[C@@H]2CC(O)[C@@]1(C)CC (stereo not given in full) | 4.52 µM | 37.2 µM | 32.6 µM | > 28.7 µM | 45.8 µM | > 100 µM | – | 18.7 µM | 14.5 µM | 29.9 µM | 22.6 µM | 11.8 µM | 21.7 µM | 20.4 µM | 51.1 µM | – | – | > 30.2 µM | 5.92 µM | 6.44 µM |
| C[C@]12CC[C@H](O)CC1=CC[C@@H]1[C@@H]2CC[C@]2(C)C(=O)[C@@H](N3CCOCC3)C[C@@H]12 | > 100 µM | > 100 µM | > 100 µM | > 100 µM | > 100 µM | > 100 µM | – | > 100 µM | > 100 µM | > 100 µM | > 100 µM | > 100 µM | > 100 µM | > 100 µM | > 100 µM | > 100 µM | > 100 µM | > 100 µM | > 100 µM | > 100 µM |
| O=Cc1cc2c(cc1-c1c(C=O)ccc3c1OCO3)OCO2 | – | > 10 µM | > 10 µM | > 10 µM | – | > 10 µM | > 10 µM | > 10 µM | > 10 µM | > 10 µM | > 10 µM | > 10 µM | – | > 10 µM | – | > 10 µM | > 10 µM | > 10 µM | > 10 µM | > 10 µM |
| CC(=O)c1c2c(cc3c1CC1(Cc4ccccc4C1=O)C3)CCC2 (stereo not given) | > 100 µM | 49 µM | > 100 µM | > 100 µM | > 100 µM | > 100 µM | – | 51.5 µM | 66.6 µM | > 100 µM | > 100 µM | > 100 µM | 92 µM | 89.1 µM | 63.9 µM | 53.3 µM | > 100 µM | > 100 µM | 33.7 µM | > 100 µM |
| Clc1c(Cl)c(Cl)c2nn(C3CCCO3)nc2c1Cl (stereo not given) | > 100 µM | – | > 100 µM | > 100 µM | – | > 100 µM | 80.5 µM | > 100 µM | > 100 µM | > 100 µM | 98.3 µM | – | > 100 µM | > 100 µM | > 100 µM | > 100 µM | > 100 µM | – | – | > 100 µM |
| CCCCCCCCCCCCCCCCCCNc1ccn(C2OC(COP(=O)(O)OCC3OC(n4cc(C)c(=O)[nH]c4=O)CC3O)C(O)C2O)c(=O)n1 (stereo not given) | 30.3 µM | 36.4 µM | 33.4 µM | – | 33.9 µM | 32.4 µM | 29.9 µM | 31.4 µM | 30.8 µM | 22.3 µM | 50.2 µM | 28.5 µM | – | 31.6 µM | 34.9 µM | 31.3 µM | 35.8 µM | 39.4 µM | – | 23.6 µM |
| COCCOCc1nc(C#N)c(N)o1 | – | > 100 µM | > 100 µM | > 100 µM | > 100 µM | > 100 µM | – | > 100 µM | > 100 µM | > 100 µM | > 100 µM | > 100 µM | > 100 µM | – | > 100 µM | > 100 µM | > 100 µM | > 100 µM | > 100 µM | > 100 µM |
| CC(=O)Nc1ccc(C(=O)NN2C(=O)C(Cl)C2c2ccccc2)cc1 (stereo not given) | > 100 µM | – | > 100 µM | > 100 µM | > 100 µM | > 100 µM | – | > 100 µM | > 100 µM | > 100 µM | > 100 µM | > 100 µM | > 100 µM | > 100 µM | > 100 µM | – | – | > 100 µM | > 100 µM | > 100 µM |
| COC(=O)C(C(=O)C(=O)Nc1cccc(OC)c1)c1cnc2ccccc2n1 (stereo not given) | > 100 µM | > 100 µM | > 100 µM | > 100 µM | > 100 µM | > 100 µM | – | > 100 µM | > 100 µM | > 100 µM | > 100 µM | > 100 µM | > 100 µM | > 100 µM | > 100 µM | – | – | > 100 µM | > 100 µM | > 100 µM |
